One may read the EC50 as the concentration needed to bring the measured effect to its halfway point. The low end stands for a more potent agent, the high end for a less potent agent.

SMILES strings stand for the structures.

Experimental findings from patent US20140011700A1 (Bristol-Myers Squibb Company, published 2014) are described below.

Test systems include A/WSN/33 Y52H; A/WSN/33 Y289H; A/WSN/33 N309T; A/WSN/33 N309K.
Assay type in all cases: cell-based, Influenza A

Regarding `COc1ccccc1-c1noc(C)c1C(=O)N1CCN(c2ccc([N+](=O)[O-])cc2Cl)CC1` [Compound B], the EC50 was 8.15 µM in the test with A/WSN/33 Y52H, above 20 µM in the test on A/WSN/33 Y289H, 3.5 µM with A/WSN/33 N309T and above 20 µM in the test on A/WSN/33 N309K.

As to `Cc1cc(Br)cnc1N1CCN(C(=O)c2c(-c3ccccc3Cl)noc2C)CC1` [Compound D], the EC50 with A/WSN/33 Y52H, with A/WSN/33 Y289H, in the test with A/WSN/33 N309T and with A/WSN/33 N309K was above 20 µM throughout.
